Measured values reported in publication PMC11966596, “Perturbation-Modulated Native Mass Spectrometry Excludes a Nonspecific Drug Target Protein Binder Based on Conformation Stability Change” (Analytical Chemistry, 2025).

What was measured:
[1] = biological target: T1, lysozyme (Gallus gallus, UniProt P00698); assay: native OPP-ESI-MS, charge state distribution; format: binding; settings: 100 μM protein, 1 mM ligand; 25 mM ammonium acetate; OPP solvent 10 mM NH4Ac
T1 construct: gene LYZ

[2] = biological target: DHFR (recombinant human DHFR) (Homo sapiens, UniProt P00374); settings: 5 μM his-tagged protein; 100 mM ammonium acetate; co-purified NADPH present
DHFR (recombinant human DHFR), sequence (P00374 whole entry): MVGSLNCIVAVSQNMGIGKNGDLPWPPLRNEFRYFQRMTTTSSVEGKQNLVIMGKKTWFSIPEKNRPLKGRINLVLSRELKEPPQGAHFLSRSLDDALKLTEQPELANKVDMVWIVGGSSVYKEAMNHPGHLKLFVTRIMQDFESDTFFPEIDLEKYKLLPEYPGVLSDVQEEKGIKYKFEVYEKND

T1 sequence (P00698 19-147): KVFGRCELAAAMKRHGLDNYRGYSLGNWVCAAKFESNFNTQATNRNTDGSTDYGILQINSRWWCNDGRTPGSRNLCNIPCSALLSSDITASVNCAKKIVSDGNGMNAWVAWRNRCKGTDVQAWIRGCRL

Compound	R (bound/unbound protein ratio) [1]	% binding at 100 μM [2]
CC(=O)N[C@H]1[C@H](O[C@H]2[C@H](O)[C@@H](NC(C)=O)C(O)O[C@@H]2CO)O[C@H](CO)[C@@H](O[C@@H]2O[C@H](CO)[C@@H](O)[C@H](O)[C@H]2NC(C)=O)[C@@H]1O (some centres unmarked) [NTAC]	0.59	–
Nc1nc(N)c2nc(CNc3ccc(C(=O)N[C@@H](CCC(=O)O)C(=O)O)cc3)cnc2n1 [aminopterin]	–	100%
